Laboratory results from US20190352297A1, “SELECTIVE AURORA A KINASE INHIBITORS” (UNIVERSITAT BERN, priority 2017, published 2019).

Tests used:
[1] = molecular target: T1, Aurora B (without INCENP) (Homo sapiens, UniProt Q96GD4); assay: Active site directed binding competition assay, KD (DiscoveRx)
T1 construct: purchased DiscoveRx scanMAX
Experimental: (§1) The kinome profiling of compound 9 was conducted by DiscoveRx. In total, 456 kinases were assayed (scanMAX). For most assays, kinase-tagged T7 phage strains were grown in parallel in 24-well blocks in an E. coli host derived from the BL21 strain. E. coli were grown to log-phase and infected with T7 phage from a frozen stock (multiplicity of infection=0.4) and incubated with shaking at 32° C. until lysis (90-150 minutes). The lysates were centrifuged (6000 g) and filtered (0.2 μm) to remove cell debris. The remaining kinases were produced in HEK-293 cells and subsequently tagged with DNA for qPCR detection. […] The liganded beads were blocked with excess biotin and washed with blocking buffer (SeaBlock (Pierce), 1% BSA, 0.05% Tween 20, 1 mM DTT) to remove unbound ligand and to reduce non-specific phage binding. […] Test compounds were prepared as 40× stocks in 100% DMSO and directly diluted into the assay. All reactions were performed in polypropylene 384-well plates in a final volume of 0.04 ml. […] The kinase concentration in the eluates was measured by qPCR. […] was screened at 1 μM, and results for primary screen binding interactions were reported as % of control (PoC). PoC=(test compound signal−positive control signal)/(DMSO signal−positive control signal). PoC values at 1 μM 9 for all kinases were visualized using TREEspot (DiscoveRx). […] KD values were determined with a standard dose-response curve using the Hill equation.

Aurora A = molecular target: T2, Aurora A (Homo sapiens, UniProt O14965); assay: as above; details: free Aurora A
T2 sequence (O14965 1-403): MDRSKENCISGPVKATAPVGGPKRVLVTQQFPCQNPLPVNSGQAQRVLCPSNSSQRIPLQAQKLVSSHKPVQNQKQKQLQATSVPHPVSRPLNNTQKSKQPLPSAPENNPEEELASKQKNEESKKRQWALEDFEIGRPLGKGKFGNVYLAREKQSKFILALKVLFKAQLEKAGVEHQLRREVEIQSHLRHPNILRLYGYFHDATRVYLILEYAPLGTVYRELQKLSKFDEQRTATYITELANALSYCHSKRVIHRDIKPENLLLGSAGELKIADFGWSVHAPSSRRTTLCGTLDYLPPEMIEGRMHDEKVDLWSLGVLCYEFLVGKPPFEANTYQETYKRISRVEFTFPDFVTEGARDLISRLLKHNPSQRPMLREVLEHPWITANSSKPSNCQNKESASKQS
Experimental: as §1

Aurora C = molecular target: T3, Aurora C (Homo sapiens, UniProt Q9UQB9); assay: as above
T3 construct: purchased DiscoveRx scanMAX
T3 sequence (Q9UQB9 1-309): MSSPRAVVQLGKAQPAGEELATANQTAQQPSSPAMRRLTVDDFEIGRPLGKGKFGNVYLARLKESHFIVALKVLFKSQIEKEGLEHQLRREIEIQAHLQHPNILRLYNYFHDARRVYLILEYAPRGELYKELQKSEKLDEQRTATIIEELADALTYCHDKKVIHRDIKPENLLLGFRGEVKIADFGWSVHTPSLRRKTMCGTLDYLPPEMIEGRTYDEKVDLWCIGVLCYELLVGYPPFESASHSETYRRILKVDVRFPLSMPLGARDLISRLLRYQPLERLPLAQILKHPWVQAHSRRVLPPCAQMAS
Experimental: as §1

Aurora A kinase domain = molecular target: T4, Aurora A kinase domain (Homo sapiens, UniProt O14965); assay: HTRF kinase assay, Aurora A; type: biochemical; details: free Aurora A, 20 μM ATP, HTRF; read-out: IC50 Aurora A (biochemical)
T4 construct: human Aurora A kinase domain (residues 122-403 in the pET24-d vector); His-tag (cleaved yes); made in house; host or cells: E. coli BL21 (DE3) Rosetta
T4 sequence (O14965 122-403): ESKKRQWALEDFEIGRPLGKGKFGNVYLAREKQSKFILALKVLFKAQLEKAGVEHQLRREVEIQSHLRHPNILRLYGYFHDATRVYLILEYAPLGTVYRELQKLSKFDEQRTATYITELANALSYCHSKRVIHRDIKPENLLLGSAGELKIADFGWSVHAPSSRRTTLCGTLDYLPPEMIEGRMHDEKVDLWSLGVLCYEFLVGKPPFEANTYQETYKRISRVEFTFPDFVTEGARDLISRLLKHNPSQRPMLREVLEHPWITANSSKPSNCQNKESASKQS
Experimental: The clone of human Aurora A kinase domain (residues 122-403 in the pET24-d vector) was kindly provided by the Montoya laboratory (University of Copenhagen). The construct was transformed into E. coli BL21 (DE3) Rosetta cells and protein expression was induced with 0.5 mM IPTG at 20° C. for 12 hours. The cells were harvested at 6,000×g for 25 min at 4° C. and resuspended in lysis buffer (50 mM Tris-HCl, 500 mM NaCl, 1 mM PMSF, pH=8.0). Disruption of the cells was performed by sonication cooled on ice, after which the debris were removed by centrifugation at 110,000×g for 30 min at 4° C. Aurora A was purified by affinity chromatography using NiNTA resin from Qiagen following the manufacturer's instructions. After loading, the resin was washed with lysis buffer, followed by a second wash with 6% elution buffer (50 mM Tris-HCl, 500 mM NaCl, 500 mM imidazole, pH=8.0). Protein was eluted with 100% elution buffer. The eluate was exchanged into final buffer (20 mM Tris-HCl, 200 mM NaCl, 0.5 mM EDTA, 2 mM DTT, pH=8.0) using a HiPrep 26/10 desalting column (GE Healthcare). The His-tag was cleaved with TEV protease at 4° C. overnight. […] Protein concentration was determined by UV absorbance. […]
Aurora A and AuroraB kinases were assayed using the homogeneous time-resolved fluorescence (HTRF) KinEASE STK2 kit from Cisbio (France). […] After incubation at room temperature for one hour, fluorescence was measured at 620 nm (europium cryptate) and 665 nm (XL-665) after excitation at 317 nm (lag time 60 μs, integration time 500 μs) using a Tecan Infinite M1000 PRO microplate reader (Greiner 384-well plates, white, non-binding, small volume). The ratio of fluorescence (665 nm/620 nm) was calculated for each well and the results were expressed as follows: specific signal=ratio (sample)−ratio (negative control), where ratio=665 nm/620 nm×10^4. Compounds were measured in threefold serial dilutions at 10 different concentrations, covering the concentration range from no to full inhibition. Each concentration was measured in duplicates, and two independent determinations were made for each IC50 value. […]

T1 sequence (Q96GD4 whole entry): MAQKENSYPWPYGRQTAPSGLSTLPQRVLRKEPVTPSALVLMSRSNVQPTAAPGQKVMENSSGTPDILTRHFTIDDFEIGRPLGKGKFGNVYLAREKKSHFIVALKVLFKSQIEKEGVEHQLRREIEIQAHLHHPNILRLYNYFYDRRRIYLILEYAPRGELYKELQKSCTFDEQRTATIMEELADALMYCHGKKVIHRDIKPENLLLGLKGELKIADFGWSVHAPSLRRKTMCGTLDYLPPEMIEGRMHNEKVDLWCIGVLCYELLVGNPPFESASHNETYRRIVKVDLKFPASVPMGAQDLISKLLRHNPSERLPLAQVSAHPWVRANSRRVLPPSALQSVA

CCc1ccc(N=C2SC(=Cc3ccnc(Nc4ccc(C(=O)O)cn4)c3)C(=O)N2C)cc1 [Compound 9]
Kd [1]: 10 nM
Kd (Aurora A): 5 nM
Kd (Aurora C): 11 nM
IC50 (Aurora A kinase domain): 2 ± 0.5 nM
